Test results reported in ChEMBL document CHEMBL1909046, “DrugMatrix in vitro pharmacology data”.
pIC50, pKi: −log10 of the molar value. Where a SMILES comes first, the peptide text is derived from it. Bridges are numbered along the chain shown (N, C = ends). [ ]: non-standard residue; d: D form. The star is where a group is joined. Threoninol(2S,3R) = C[C@@H](O)[C@H](CO)N*

How the values were obtained:
[1] = target: Sodium-dependent noradrenaline transporter (Homo sapiens, UniProt P23975); assay: DRUGMATRIX: Norepinephrine Transporter radioligand binding (ligand: [125I] RTI-55); format: cell membranes, MDCK, Membrane; settings: Not Active = under 50% inhibition at 10 µM
[2] = target: T1, Receptor-type tyrosine-protein phosphatase C (Homo sapiens, UniProt P08575); set-up: species or system Escherichia coli;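 further: inhibition of CD45 enzyme activity measured using DiFMUP as substrate; in other assays of this panel Not Active means under 50% inhibition at 10 µM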
T1 sequence (P08575 whole entry): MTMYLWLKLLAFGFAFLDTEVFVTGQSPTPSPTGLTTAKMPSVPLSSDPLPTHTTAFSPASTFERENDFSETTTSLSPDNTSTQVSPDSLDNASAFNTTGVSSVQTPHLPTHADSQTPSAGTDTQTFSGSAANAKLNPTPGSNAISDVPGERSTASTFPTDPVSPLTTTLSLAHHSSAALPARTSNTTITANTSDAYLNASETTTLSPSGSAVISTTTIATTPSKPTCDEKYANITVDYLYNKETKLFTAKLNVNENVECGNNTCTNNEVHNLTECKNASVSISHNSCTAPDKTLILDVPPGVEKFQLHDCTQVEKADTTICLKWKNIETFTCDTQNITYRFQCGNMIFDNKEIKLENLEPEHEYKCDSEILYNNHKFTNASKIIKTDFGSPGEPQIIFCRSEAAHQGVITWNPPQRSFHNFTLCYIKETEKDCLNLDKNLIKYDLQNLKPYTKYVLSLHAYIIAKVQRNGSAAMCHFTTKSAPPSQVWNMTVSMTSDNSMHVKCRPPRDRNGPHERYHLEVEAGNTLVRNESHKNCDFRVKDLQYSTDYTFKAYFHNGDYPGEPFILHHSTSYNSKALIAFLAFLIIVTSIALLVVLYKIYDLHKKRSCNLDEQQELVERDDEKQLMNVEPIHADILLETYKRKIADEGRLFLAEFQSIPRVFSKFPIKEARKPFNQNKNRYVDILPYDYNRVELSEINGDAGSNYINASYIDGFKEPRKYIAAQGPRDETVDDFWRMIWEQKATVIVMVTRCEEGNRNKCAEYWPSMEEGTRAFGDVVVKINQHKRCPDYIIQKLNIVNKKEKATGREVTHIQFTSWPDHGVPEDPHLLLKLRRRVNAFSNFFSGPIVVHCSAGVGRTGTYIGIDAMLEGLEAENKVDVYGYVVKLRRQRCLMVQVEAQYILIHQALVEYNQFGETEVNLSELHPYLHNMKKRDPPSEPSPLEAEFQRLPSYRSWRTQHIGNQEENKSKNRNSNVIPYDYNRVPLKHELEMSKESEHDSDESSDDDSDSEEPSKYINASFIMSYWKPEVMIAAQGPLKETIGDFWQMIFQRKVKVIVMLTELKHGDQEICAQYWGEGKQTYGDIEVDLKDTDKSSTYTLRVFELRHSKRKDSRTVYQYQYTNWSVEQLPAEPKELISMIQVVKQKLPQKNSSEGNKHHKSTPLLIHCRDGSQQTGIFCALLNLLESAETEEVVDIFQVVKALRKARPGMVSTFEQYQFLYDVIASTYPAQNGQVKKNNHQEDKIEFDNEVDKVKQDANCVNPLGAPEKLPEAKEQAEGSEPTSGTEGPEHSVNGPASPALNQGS

[3] = target: Sigma non-opioid intracellular receptor 1 (Homo sapiens, UniProt Q99720); assay: DRUGMATRIX: Sigma1 radioligand binding (ligand: [3H] Haloperidol); format: cell membranes, Jurkat, Membrane; settings: jurkat; Not Active = under 50% inhibition at 10 µM
[4] = target: Receptor tyrosine-protein kinase erbB-2 (Homo sapiens, UniProt P04626); assay: biochemical; format: cell-based, Insect cells; settings: insect cells;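 further: inhibition of HER2 kinase enzyme activity, measured with Poly(Glu:Tyr) as the phosphorylation substrate; in other assays of this panel Not Active means under 50% inhibition at 10 µM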
[5] = target: T2, Alpha-1D adrenergic receptor (Homo sapiens, UniProt P25100); format: cell membranes, HEK293, Membrane; settings: hek293; further: in other assays of this panel Not Active means under 50% inhibition at 10 µM
T2 sequence (P25100 whole entry): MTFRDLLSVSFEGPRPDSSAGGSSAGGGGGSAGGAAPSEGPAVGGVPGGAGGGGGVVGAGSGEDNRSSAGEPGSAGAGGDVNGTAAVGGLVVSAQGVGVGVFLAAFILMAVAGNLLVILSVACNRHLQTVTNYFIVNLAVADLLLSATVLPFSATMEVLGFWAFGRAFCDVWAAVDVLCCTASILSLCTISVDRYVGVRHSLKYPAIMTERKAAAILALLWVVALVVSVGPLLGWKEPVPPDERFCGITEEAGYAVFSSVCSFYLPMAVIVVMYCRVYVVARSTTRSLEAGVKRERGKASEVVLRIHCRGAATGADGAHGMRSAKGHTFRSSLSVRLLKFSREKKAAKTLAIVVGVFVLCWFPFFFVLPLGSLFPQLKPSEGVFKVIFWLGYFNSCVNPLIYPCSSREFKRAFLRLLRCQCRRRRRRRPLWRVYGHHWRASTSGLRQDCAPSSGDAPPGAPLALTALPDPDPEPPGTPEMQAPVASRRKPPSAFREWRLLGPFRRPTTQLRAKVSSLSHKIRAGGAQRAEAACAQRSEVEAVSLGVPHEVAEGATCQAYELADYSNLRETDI

[6] = target: Platelet-activating factor receptor (Homo sapiens, UniProt P25105); format: tissue-based; further: in other assays of this panel Not Active means under 50% inhibition at 10 µM
Platelet-activating factor receptor, sequence (P25105 whole entry): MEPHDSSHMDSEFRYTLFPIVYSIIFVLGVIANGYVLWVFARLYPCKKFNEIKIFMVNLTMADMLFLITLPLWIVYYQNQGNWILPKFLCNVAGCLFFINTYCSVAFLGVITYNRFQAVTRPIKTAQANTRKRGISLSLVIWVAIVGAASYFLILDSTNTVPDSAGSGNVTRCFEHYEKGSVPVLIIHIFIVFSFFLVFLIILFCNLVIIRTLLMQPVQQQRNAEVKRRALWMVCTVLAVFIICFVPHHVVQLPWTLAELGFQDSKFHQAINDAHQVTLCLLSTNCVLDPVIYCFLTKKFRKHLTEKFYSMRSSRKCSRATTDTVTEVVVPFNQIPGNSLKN

Sodium-dependent noradrenaline transporter, sequence (P23975 whole entry): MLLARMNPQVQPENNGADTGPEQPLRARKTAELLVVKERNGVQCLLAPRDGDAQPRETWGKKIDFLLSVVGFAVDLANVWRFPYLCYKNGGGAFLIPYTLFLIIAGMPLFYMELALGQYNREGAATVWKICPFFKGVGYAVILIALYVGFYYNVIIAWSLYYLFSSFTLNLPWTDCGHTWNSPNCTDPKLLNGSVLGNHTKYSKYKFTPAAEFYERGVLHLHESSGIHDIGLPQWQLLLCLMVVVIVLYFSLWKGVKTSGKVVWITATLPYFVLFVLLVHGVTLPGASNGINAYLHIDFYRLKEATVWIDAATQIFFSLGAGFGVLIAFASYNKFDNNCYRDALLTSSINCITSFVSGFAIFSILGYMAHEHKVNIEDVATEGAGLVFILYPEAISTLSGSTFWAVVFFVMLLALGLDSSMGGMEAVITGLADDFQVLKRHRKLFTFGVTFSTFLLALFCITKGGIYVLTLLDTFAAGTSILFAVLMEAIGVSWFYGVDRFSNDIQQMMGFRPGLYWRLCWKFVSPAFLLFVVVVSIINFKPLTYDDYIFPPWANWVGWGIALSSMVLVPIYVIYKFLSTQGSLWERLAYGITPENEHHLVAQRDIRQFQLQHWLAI
Sigma non-opioid intracellular receptor 1, sequence (Q99720 whole entry): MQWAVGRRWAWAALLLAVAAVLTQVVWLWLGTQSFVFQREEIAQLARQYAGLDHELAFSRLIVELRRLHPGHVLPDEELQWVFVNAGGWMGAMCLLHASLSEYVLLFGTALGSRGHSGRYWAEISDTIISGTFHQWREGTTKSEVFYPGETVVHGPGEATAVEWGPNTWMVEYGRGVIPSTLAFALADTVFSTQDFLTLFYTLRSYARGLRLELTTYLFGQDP
Receptor tyrosine-protein kinase erbB-2, sequence (P04626 whole entry): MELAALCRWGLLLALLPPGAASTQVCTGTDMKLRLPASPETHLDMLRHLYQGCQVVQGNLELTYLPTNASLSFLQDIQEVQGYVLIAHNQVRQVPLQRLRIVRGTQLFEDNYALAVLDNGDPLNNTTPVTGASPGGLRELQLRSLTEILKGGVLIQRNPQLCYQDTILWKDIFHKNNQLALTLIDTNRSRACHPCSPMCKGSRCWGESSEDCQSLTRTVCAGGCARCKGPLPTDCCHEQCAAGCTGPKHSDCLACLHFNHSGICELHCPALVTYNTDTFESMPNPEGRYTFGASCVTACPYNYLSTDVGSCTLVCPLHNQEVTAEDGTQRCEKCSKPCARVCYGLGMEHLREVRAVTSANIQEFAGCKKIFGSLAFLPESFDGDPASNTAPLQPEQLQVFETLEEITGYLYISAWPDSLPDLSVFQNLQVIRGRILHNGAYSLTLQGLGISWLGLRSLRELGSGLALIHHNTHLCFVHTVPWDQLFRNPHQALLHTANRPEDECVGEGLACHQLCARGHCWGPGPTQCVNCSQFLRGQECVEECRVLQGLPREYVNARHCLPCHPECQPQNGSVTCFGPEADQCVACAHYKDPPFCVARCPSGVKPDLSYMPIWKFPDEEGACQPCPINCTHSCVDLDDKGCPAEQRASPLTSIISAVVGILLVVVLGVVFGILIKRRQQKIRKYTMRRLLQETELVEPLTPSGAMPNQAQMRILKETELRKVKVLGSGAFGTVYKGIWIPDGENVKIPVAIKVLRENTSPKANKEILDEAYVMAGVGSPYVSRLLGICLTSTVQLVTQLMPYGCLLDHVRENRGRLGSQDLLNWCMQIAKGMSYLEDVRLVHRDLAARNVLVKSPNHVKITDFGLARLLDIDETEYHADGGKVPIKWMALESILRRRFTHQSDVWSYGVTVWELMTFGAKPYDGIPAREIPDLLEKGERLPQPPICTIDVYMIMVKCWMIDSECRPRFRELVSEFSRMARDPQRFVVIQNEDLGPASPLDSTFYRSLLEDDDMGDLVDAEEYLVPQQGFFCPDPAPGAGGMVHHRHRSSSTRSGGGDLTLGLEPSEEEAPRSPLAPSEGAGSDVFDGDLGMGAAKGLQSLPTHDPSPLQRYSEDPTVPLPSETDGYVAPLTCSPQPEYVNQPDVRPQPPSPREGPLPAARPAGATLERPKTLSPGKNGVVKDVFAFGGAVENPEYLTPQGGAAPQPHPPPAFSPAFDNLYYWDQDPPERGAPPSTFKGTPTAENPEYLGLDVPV

Structure (SMILES)	IC50 ([1]; mdck)	IC50 [2]	IC50 [3]	IC50 [4]	IC50 [5]	IC50 [6]	pIC50 ([1]; read-out: IC50)	pKi ([1]; read-out: Ki)	Ki ([1]; mdck)	Ki [2]	Ki [3]	Ki [4]	Ki [5]	Ki [6]
COc1ccccc1C(=O)N1CCC(Cc2ccccc2)CC1	Not Active	Not Active	Not Active	Not Active	Not Active	Not Active	–	–	–	–	–	–	–	–
Cc1ccccc1C(=O)N1CCC(Cc2ccccc2)CC1	Not Active	Not Active	Not Active	Not Active	Not Active	Not Active	–	–	–	–	–	–	–	–
O=C1CC[C@H](N2C(=O)c3ccccc3C2=O)C(=O)N1	Not Active	Not Active	Not Active	Not Active	Not Active	Not Active	–	–	–	–	–	–	–	–
N=C(Nc1ccccc1)Nc1ccccc1	–	Not Active	–	Not Active	Not Active	Not Active	5.94	5.94	–	–	–	–	–	–
C[C@@H](O)[C@H](CO)NC(=O)[C@@H]1CSSC[C@H](NC(=O)[C@H](N)Cc2ccccc2)C(=O)N[C@@H](Cc2ccccc2)C(=O)N[C@H](Cc2c[nH]c3ccccc23)C(=O)N[C@@H](CCCCN)C(=O)N[C@@H]([C@@H](C)O)C(=O)N1 (H-[dF]CF[dW]KTC-{Threoninol(2S,3R)}; disulfide 2-7)	Not Active	Not Active	Not Active	Not Active	Not Active	Not Active	–	–	–	–	–	–	–	–
S=C=Nc1cccc2ccccc12 [1-NAPHTHYLISOTHIOCYANATE]	Not Active	Not Active	Not Active	Not Active	Not Active	Not Active	–	–	–	–	–	–	–	–
C[C@](O)(CS(=O)(=O)c1ccc(F)cc1)C(=O)Nc1ccc(C#N)c(C(F)(F)F)c1 [(R)-BICALUTAMIDE]	–	Not Active	Not Active	Not Active	Not Active	Not Active	–	–	–	–	–	–	–	–
CCCC(=O)Nc1ccc(OCC(O)CNC(C)C)c(C(C)=O)c1 (centres undefined) [ACEBUTOLOL]	Not Active	Not Active	Not Active	Not Active	Not Active	Not Active	–	–	–	–	–	–	–	–
CC(=O)Nc1ccc(O)cc1 [ACETAMINOPHEN]	Not Active	Not Active	Not Active	Not Active	Not Active	Not Active	–	–	–	–	–	–	–	–
COc1cc2c(c3oc(=O)c4c(c13)CCC4=O)[C@@H]1C=CO[C@@H]1O2 [AFLATOXIN]	Not Active	Not Active	Not Active	Not Active	Not Active	Not Active	–	–	Not Active	Not Active	Not Active	Not Active	Not Active	Not Active
N=C(N)NC(=O)c1nc(Cl)c(N)nc1N [AMILORIDE]	Not Active	Not Active	Not Active	Not Active	Not Active	Not Active	–	–	–	–	–	–	–	–
Cc1cc(=O)n(-c2ccccc2)n1C [ANTIPYRINE]	Not Active	Not Active	Not Active	Not Active	Not Active	Not Active	–	–	–	–	–	–	–	–
CN1C(=O)COc2c(C(=O)NC3CN4CCC3CC4)cc(Cl)cc21 (centres undefined) [AZASETRON]	Not Active	Not Active	Not Active	Not Active	Not Active	Not Active	–	–	–	–	–	–	–	–
C[C@H]1C[C@H]2[C@@H]3CCC4=CC(=O)C=C[C@]4(C)[C@@]3(Cl)[C@@H](O)C[C@]2(C)[C@@]1(O)C(=O)CO [BECLOMETHASONE]	Not Active	Not Active	Not Active	Not Active	Not Active	Not Active	–	–	–	–	–	–	–	–
